One compound from US20200290950A1, “ALKAMIDE COMPOUNDS AND USES THEREOF” (NORTH CAROLINA STATE UNIVERSITY, priority 2017, published 2020) can be followed below.

Assay [1] concerns BMMCs. Description: Fluo-4 calcium assay, BMMCs. In kind it is cell-based, mouse. How it is done: FIGS. 3A-3H. A15 inhibits calcium influx in RBL-2H3 cells and BMMCs. RBL-2H3 cells (FIGS. 3A-3D) and BMMCs (FIGS. 3E-3H) were plated and incubated overnight prior to treatments. For DNP-BSA treatments, overnight incubation also included 1 μg/mL IgE anti-DNP. Prior to stimulation, cells were washed and loaded with the fluorescent, calcium-sensitive dye fluo-4 AM using the Fluo-4 AM Direct™ Calcium Assay Kit and fluorescence was measured on a microplate reader. Calcium influx was triggered in all experiments using either 1 μM A23187 or 50 ng/mL DNP-BSA, as indicated. Bar graphs represent the means±SEM of the Δ in RFU's at 1 min post-A23187- or DNP-BSA-stimulation from 3 independent experiments (FIGS. 3B, 3D, 3F, 3H). Statistical analysis was performed using a one-way ANOVA with Dunnett's post-hoc test, *p<0.05, **p<0.01, ***p<0.001.
RBL-2H3, BMMC, RAW 264.7, or Jurkat cells were plated in clear-bottom, black, 96-well plates (BioExpress, Kaysville, Utah) and incubated overnight with media only or media containing IgE anti-DNP. Cells were loaded with the calcium-sensitive dye fluo-4 AM using the Fluo-4 Direct™ Calcium Assay Kit (Thermo Fisher Scientific) according to the manufacturer's instructions by incubating at 37° C. for 30 min followed by 30 min at room temperature. Prior to stimulation, baseline fluorescent readings were measured from triplicate wells in 5 s intervals for 1 min using a Synergy HT microplate reader with 485/20 nm excitation and 528/20 nm emission filters. Cells were then treated with either 1 μM A23187 or 50 ng/mL DNP-BSA prepared in calcium- and magnesium-containing or calcium- and magnesium-free HBSS with 20 mM HEPES, and fluorescence was measured in 10 s intervals for 2 min. The final concentration of ethanol was 0.25% in these assays. The average baseline fluorescence of each well was subtracted from the stimulated fluorescent values to calculate the change (Δ) in RFU's and graphed as shown.

Assay [2] deals with RBL-2H3 cells. In words: TNF-α production, ELISA, 8 hrs (Example 1). In kind it is cell-based, rat. The settings on record: 1 μM A23187, all doses tested. How it is done:
FIGS. 6A-6B. A15 inhibits de novo production of TNF-α and PGE2 from RBL-2H3 cells. RBL-2H3 cells were plated and incubated overnight prior to stimulation. Cells were stimulated with 1 μM A23187 in combination with the indicated doses of A15. Supernatants were collected 8 hrs later and TNF-α (FIG. 6A) or PGE2 (FIG. 6B) levels were measured using ELISA kits. Data shown are the means±SEM from 3 independent experiments. Statistical analysis was performed using a one-way ANOVA with Dunnett's post-hoc test, *p<0.05, **p<0.01, ***p<0.001.
Bone marrow cells were isolated from the femurs of 6-8 week old C57BL/6 mice and cultured in RPMI-1640 containing 10% heat-inactivated FBS, non-essential amino acids, HEPES buffer, sodium pyruvate, 100 U/mL penicillin, 100 μg/mL streptomycin, 5 ng/mL mIL-3, and 5 ng/mL mSCF for 4-6 weeks until mature, bone marrow-derived mast cells (BMMCs) were obtained, as described previously (Kuehn et al., 2010). Differentiation into >98% mast cells was confirmed through toluidine blue staining (1%, pH 1). RBL-2H3, RAW 264.7, and Jurkat cells were obtained from the American Type Culture Collection (Manassas, Va.). […] Optical density was determined using a Synergy HT microplate reader (BioTek Instruments, Inc, Winooski, Vt.). […]
Background: In an ELISA, binding on a coated surface is turned into a signal by an enzyme label.

For assay [3], the system named is RBL-2H3 cells. In words: Histamine release, competitive EIA. The class given is cell-based, rat. The settings on record: RBL-2H3 cells treated with A23187, 1 hr. How it is done: FIGS. 1A-1F. A15 inhibits BMMC and RBL-2H3 cell degranulation. The structure of alkamide A15 is shown with different functional groups and carbons in the fatty acid chain labeled (FIG. 1A). BMMCs were plated and stimulated 4 hrs later with 1 μM A23187 and the indicated concentrations of A15 or vehicle only. The percent degranulation was measured after 1 hr (FIG. 1B). RBL-2H3 cells were treated with A23187 and the percent degranulation was determined 1 hr later (FIG. 1C) or every 10 min over a 1 hr time course (FIG. 1D). RBL-2H3 cells were plated and incubated for 4 hrs before the media was aspirated and replaced with media containing 1 μg/mL IgE anti-DNP. Cells were incubated overnight and washed prior to stimulation. The percent degranulation from RBL-2H3 cells was calculated after stimulation with 50 ng/mL DNP-HSA in combination with the indicated concentrations of A15 or vehicle only after 1 hr (FIG. 1E). RBL-2H3 cells were stimulated for 1 hr in Tyrode's buffer before supernatants were collected and levels of histamine were measured using a competitive inhibition EIA kit (FIG. 1F). Data shown are the means±SEM from 3-4 independent experiments (FIG. 1B, FIG. 1C and FIG. 1F) or the means±SEM of triplicate wells from a representative experiment from 3 independent experiments (FIG. 1D and FIG. 1E). […]

For `CCCCCCC/C=C/C=C/C(=O)NCC(C)C` [A15, (2E,4E)-N-Isobutyldodeca-2,4-dienamide], the calcium response entry in assay [1] (BMMCs treated with A23187) is given as “blocked the calcium response”; in assay [1] (BMMCs treated with IgE anti-DNP and DNP-BSA) it was “blocked the calcium response”. In addition, in assay [1] (BMMCs, A15 alone), the “calcium response to compound itself” value was “did not cause a calcium response”. Moreover, the “production of TNF-α” value in assay [2] was “significant, dose dependent inhibition”. In addition, in assay [3], the release of histamine result is listed as “inhibited the release of the vasoactive amine histamine”.
